Laboratory results published in ChEMBL document CHEMBL1201862, “PubChem BioAssay data set” (2004).
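Cells were grown in 96-well plates and exposed to each compound for 48 hours at five concentrations; endpoints were interpolated linearly between bracketing concentrations, or set to the highest concentration if not reached. Here, GI50 denotes the concentration required for 50% inhibition of growth.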 Activity calls are given as the source filed them. No stated cut-off is given here; in the data, active = GI50 up to about 1.1 µM and inactive = higher.

What was measured:
Experiment in all cases: DTP human tumour cell line panel, 48 h
[1] = test system: HT-29
[2] = test system: HCC 2998
[3] = test system: NCI-H23
[4] = test system: SNB-19
[5] = test system: OVCAR-5
[6] = test system: COLO 205
[7] = test system: OVCAR-8
[8] = test system: SK-MEL-28
[9] = test system: HCT-15
[10] = test system: LOX IMVI
[11] = test system: UO-31
[12] = test system: UACC-62
[13] = test system: OVCAR-3
[14] = test system: KM12
[15] = test system: Malme-3M
[16] = test system: 786-0

| SMILES | GI50 [1] | GI50 [2] | GI50 [3] | GI50 [4] | GI50 [5] | GI50 [6] | GI50 [7] | GI50 [8] | GI50 [9] | GI50 [10] | GI50 [11] | GI50 [12] | GI50 [13] | GI50 [14] | GI50 [15] | GI50 [16] |
| --- | --- | --- | --- | --- | --- | --- | --- | --- | --- | --- | --- | --- | --- | --- | --- | --- |
| CC(=O)OC1CC2(O)C(CCC3(C)C(c4ccc(=O)oc4)CCC32O)C2(C)CCC(O)C=C12 (stereo unspecified) | 0.0239 µM (active) | 0.0644 µM (active) | 0.00246 µM (active) | 0.0466 µM (active) | 0.104 µM (active) | 0.0385 µM (active) | 0.0152 µM (active) | 0.0375 µM (active) | 0.0239 µM | 0.0191 µM (active) | 0.0297 µM (active) | 0.024 µM (active) | 0.00469 µM (active) |  |  |  |
| Cc1ccc(C(=O)Nc2ncn(C3CC(O)C(CO)O3)c(=O)n2)cc1 (stereo unspecified) | > 100 µM (inactive) | > 100 µM (inactive) | > 100 µM (inactive) | 12.2 µM (inactive) | > 100 µM (inactive) | > 100 µM (inactive) | > 100 µM (inactive) | > 100 µM (inactive) | > 100 µM | > 100 µM (inactive) | > 100 µM (inactive) | > 100 µM (inactive) | > 33.3 µM (inactive) | > 100 µM (inactive) | > 100 µM (inactive) |  |
| CC(=O)NNc1nc(C)c(C(=O)NNC(=O)C(=O)Nc2c(C)cccc2C(C)(C)C)s1 | 64 µM (inactive) | 25.6 µM (inactive) | > 100 µM (inactive) | > 100 µM (inactive) | > 100 µM (inactive) | 46.8 µM (inactive) | > 100 µM (inactive) | > 100 µM (inactive) | 59.7 µM | 57.8 µM (inactive) | 47.8 µM (inactive) | 97.9 µM (inactive) |  | > 100 µM (inactive) |  |  |
| CC(C(=O)OCc1ccccc1)N(Cc1ccccc1)Cc1ccccc1 (stereo unspecified) | 46.8 µM (inactive) | > 100 µM (inactive) | 45.2 µM (inactive) | > 100 µM (inactive) | > 100 µM (inactive) | > 100 µM (inactive) | > 100 µM (inactive) | > 100 µM (inactive) | > 100 µM |  | 75.3 µM (inactive) | > 100 µM (inactive) | > 100 µM (inactive) | 58.7 µM (inactive) | 51.2 µM (inactive) |  |
| COC(OC)c1cc2c(cc1C=O)OCO2 | > 100 µM (inactive) | > 100 µM (inactive) | > 100 µM (inactive) | > 100 µM (inactive) | > 100 µM (inactive) |  | > 100 µM (inactive) | > 100 µM (inactive) |  |  | 45.3 µM (inactive) | 44 µM (inactive) | 75.5 µM (inactive) | > 100 µM (inactive) | 0.276 µM (active) | > 100 µM (inactive) |
| CNS(=O)(=O)NN(C)S(=O)(=O)c1ccc(C)cc1 | > 100 µM (inactive) | > 100 µM (inactive) | > 100 µM (inactive) | > 100 µM (inactive) | > 100 µM (inactive) | > 100 µM (inactive) | > 100 µM (inactive) | > 100 µM (inactive) |  |  | > 100 µM (inactive) | > 100 µM (inactive) | > 100 µM (inactive) | > 100 µM (inactive) | > 100 µM (inactive) | > 100 µM (inactive) |
| CN(C)CCNC(=O)c1cccc2nc(-c3ccccc3)oc12 | 31 µM (inactive) | 54.5 µM (inactive) | 48.3 µM (inactive) | 19.7 µM (inactive) | 38.5 µM (inactive) | 17.3 µM (inactive) | 35.9 µM (inactive) | 60.1 µM (inactive) | 43.6 µM | 26.5 µM (inactive) | 17.4 µM (inactive) | 31.5 µM (inactive) | 41.9 µM (inactive) | 53.5 µM (inactive) | 23.9 µM (inactive) |  |
| COc1ccc(C(=O)Cc2cc(OC)ccc2OC)cc1 | > 100 µM (inactive) | > 100 µM (inactive) | > 100 µM (inactive) | > 100 µM (inactive) | > 100 µM (inactive) | > 100 µM (inactive) | > 100 µM (inactive) |  | > 100 µM | > 100 µM (inactive) | > 100 µM (inactive) | > 100 µM (inactive) | > 100 µM (inactive) |  | > 100 µM (inactive) |  |
| CCC(C)n1c(C)nc2c1C(=O)c1ccccc1C2=O (stereo unspecified) | 40.4 µM (inactive) | 60.8 µM (inactive) | 33.2 µM (inactive) | 96.6 µM (inactive) |  | 43.5 µM (inactive) | 47.1 µM (inactive) | 75.7 µM (inactive) | 27.2 µM | 23.1 µM (inactive) | 37.8 µM (inactive) | 28.2 µM (inactive) | 32.5 µM (inactive) | > 100 µM (inactive) | 32.2 µM (inactive) | 61.2 µM (inactive) |
| OC(Cn1cncn1)(Cn1cncn1)c1ccc(Cl)cc1Cl | > 100 µM (inactive) |  | > 100 µM (inactive) |  | > 100 µM (inactive) | > 100 µM (inactive) | > 100 µM (inactive) | > 100 µM (inactive) | > 100 µM | > 100 µM (inactive) | > 100 µM (inactive) | > 100 µM (inactive) | > 100 µM (inactive) | > 100 µM (inactive) | > 100 µM (inactive) | > 100 µM (inactive) |
| CC[C@@]1(O)C[C@H](OC2CC(N(C)C)C(OC3CC(O)C(OC4CC(O)C(O)C(C)O4)C(C)O3)C(C)O2)c2c(cc3c(c2O)C(=O)c2c(O)ccc(O)c2C3=O)[C@H]1C(=O)OC (stereo partly specified) | 0.022 µM (active) | 0.1 µM (active) | 0.0404 µM (active) | 0.0346 µM (active) | 0.254 µM (active) | 0.0131 µM (active) | 0.00474 µM (active) | 0.0369 µM (active) | 0.151 µM | 0.163 µM (active) | 0.112 µM (active) | 0.017 µM (active) | 0.0321 µM (active) | < 0.0174 µM (active) | 0.0478 µM (active) |  |
| CC1=C(Cl)C=CP(=O)(OC(C)C)C1 (stereo unspecified) | > 100 µM (inactive) | > 100 µM (inactive) | > 100 µM (inactive) |  | > 100 µM (inactive) | > 100 µM (inactive) | 36.9 µM (inactive) | > 100 µM (inactive) | > 100 µM |  | > 100 µM (inactive) | > 100 µM (inactive) | > 100 µM (inactive) | > 100 µM (inactive) | > 100 µM (inactive) | > 100 µM (inactive) |
| CCOc1cc(/C=C/C=C/c2ccc(N(C)C)cc2)[s+]c2ccccc12 | 35.8 µM (inactive) | 59.6 µM (inactive) | 34.6 µM (inactive) | 31.3 µM (inactive) | > 100 µM (inactive) | 34.9 µM (inactive) | 25.6 µM (inactive) | 27.2 µM (inactive) | 13.8 µM | 15.4 µM (inactive) |  | 14.4 µM (inactive) | 14.2 µM (inactive) | 17.1 µM (inactive) | 28.9 µM (inactive) | 19 µM (inactive) |
| Cc1coc2c1C(=O)C(=O)c1ccccc1-2 | 1.8 µM (inactive) | 1.9 µM (inactive) | 1.92 µM (inactive) |  | 2.11 µM (inactive) | 1.5 µM (inactive) | 0.322 µM (active) | 1.71 µM (inactive) | 1.27 µM | 0.305 µM (active) | 3.1 µM (inactive) | 1.59 µM (inactive) | 1.06 µM (active) | 1.81 µM (inactive) | 1.58 µM (inactive) | 1.84 µM (inactive) |
| CCCCCOc1ccc(/C=N\c2ccc(-c3ccc(/N=C\c4ccc(OCCCCC)cc4)c(OC)c3)cc2OC)cc1 | > 100 µM (inactive) | > 100 µM (inactive) | > 100 µM (inactive) | > 100 µM (inactive) | > 100 µM (inactive) | > 100 µM (inactive) | > 100 µM (inactive) | > 100 µM (inactive) | > 100 µM | > 100 µM (inactive) | > 80.2 µM (inactive) | > 100 µM (inactive) | > 66.2 µM (inactive) | > 100 µM (inactive) | > 100 µM (inactive) |  |
| CC(=O)Nc1ccc(/C=C/c2ccc(NC(=O)Nc3ccc(/C=C/c4ccc(NC(C)=O)cc4S(=O)(=O)O)c(S(=O)(=O)O)c3)cc2S(=O)(=O)O)c(S(=O)(=O)O)c1 | > 100 µM (inactive) | 98.6 µM (inactive) | > 100 µM (inactive) | > 100 µM (inactive) | > 100 µM (inactive) | > 100 µM (inactive) | > 100 µM (inactive) | > 100 µM (inactive) | 45.8 µM | > 94.2 µM (inactive) | > 100 µM (inactive) | > 100 µM (inactive) | > 100 µM (inactive) | > 100 µM (inactive) | > 100 µM (inactive) |  |
| O=c1c2cccnc2ncn1CCCN1CCCCC1 | > 100 µM (inactive) |  | > 100 µM (inactive) | > 100 µM (inactive) | > 100 µM (inactive) | > 100 µM (inactive) | > 100 µM (inactive) | > 100 µM (inactive) |  | > 100 µM (inactive) | > 100 µM (inactive) | > 100 µM (inactive) | > 100 µM (inactive) | > 100 µM (inactive) | > 100 µM (inactive) | > 100 µM (inactive) |
| CN1CN(C(=O)N2CN(C)C(=O)N(C)C2)CN(C)C1=O | > 100 µM (inactive) | > 100 µM (inactive) |  | > 100 µM (inactive) | > 100 µM (inactive) | > 100 µM (inactive) | > 100 µM (inactive) | > 100 µM (inactive) | > 100 µM | > 100 µM (inactive) | > 100 µM (inactive) | > 100 µM (inactive) | > 100 µM (inactive) | > 100 µM (inactive) | > 100 µM (inactive) |  |
| COc1cc2c(cc1OC)[C@@H](C(O)c1ccccc1)NCC2 (stereo partly specified) | > 100 µM (inactive) | > 100 µM (inactive) | > 100 µM (inactive) | > 100 µM (inactive) | > 100 µM (inactive) | > 100 µM (inactive) | > 100 µM (inactive) |  | > 100 µM | > 100 µM (inactive) | > 100 µM (inactive) | > 100 µM (inactive) | > 100 µM (inactive) | > 100 µM (inactive) | > 100 µM (inactive) | > 100 µM (inactive) |
